What was measured:
[1] = tested on: vasculature and cell cycle genes; experiment: RT-qPCR of vasculature and cell cycle gene expression in ECs on TCP; type: cell-based, human; details: normalized to control
Text: (§1) (D) Top 10 (TPM>100, top 10 fold change) vasculature (TPM>100, Top 10 fold change) (AmiGO, GO:0001944) and cell cycle genes (AmiGO, GO:0007049) from RNA-seq. Full gene list of vasculature and cell cycle was generated by Amigo. […] Data was normalized to DMSO control (not shown). […] Data was normalized to NT control. ERK2i, siRNA of ERK2. NT, non-targeting.
(§2) We investigated a potential role for ERK signaling on cell cycle gene expression for ECs cultured on TCP surfaces since ERK regulates EC functions that include proliferation, blood vessel morphogenesis, and mechanotransduction^34,35,43-46. […] We further investigated the role for ERK activity in regulating the shift to a proliferative phenotype by comparing the top 10 enriched cycle genes from 2D culture and vascular development genes from 3D culture (Day 3) for ECs on TCP after pERK inhibition (FIGS. 3b-d).

ERK = experiment: Western blot of ERK activity (pERK) in endothelial cells in 2D culture; type: cell-based, human; details: ECs on TCP (2D culture)
Text: as §1, §2

endothelial cells (ECs) = type: cell-based; details: ECs on TCP (2D culture)
Text: as §1

**Q.** What does the source list for `N#CC(=C(/N)Sc1ccccc1N)/C(C#N)=C(\N)Sc1ccccc1N` [U0126]?
**A.** cell cycle gene expression (top 10 genes, RT-qPCR) [1]: 10 of 10 genes downregulated; vasculature (vascular development) gene expression (top 10 genes, RT-qPCR) [1]: 8 of 10 genes upregulated; ERK activity (Western blot) (ERK): decreased ERK activity; EC proliferation (endothelial cells (ECs)): decreased EC proliferation

From patent US11220672B2, “Human pluripotent stem cell-based system for generating endothelial cells” (Wisconsin Alumni Research Foundation, priority 2014, dated 2022)
